This is an account of results in US7807368B2, “Cyclin-dependent kinase inhibitors as targets for opiod growth factor treatment” (priority 2006, dated 2010).

“Also recorded” adds a separate entry of the source.

In one assay the test system is PANC-1 cells. The experiment in a line: Growth curves of PANC-1 cells transfected with p21 siRNA or negative control siRNA. Type of assay: cell-based, human. To be noted: for decrease of growth: PANC-1 cells transfected with negative control siRNAs. Here is the method:
(§1) Human pancreatic cancer cell lines BxPC-3, PANC-1, and Capan-2 were obtained from the American Type Culture Collection (Manassas, Va.), and cultured in RPMI, Dulbecco's Modified Medium, or McCoy's 5A medium, respectively. All media were supplemented with 10% fetal bovine serum, 1.2% sodium bicarbonate, and 0.25% antibiotics (5000 units/ml penicillin, 5 μg/ml streptomycin and 10 μg/ml neomycin). OGF was purchased from Sigma-Aldrich (St. Louis, Mo.), dissolved in sterile water, and used at a final concentration of 10^−6 M.
The p21-targeted siRNAs were obtained from Santa Cruz Biotechnology, and negative control siRNAs were purchased from Ambion (Ambion, Inc., Austin, Tex.). For transfection, 2×10^5 cells per well were seeded in 6-well plates containing 1 ml of media without antibiotics. For each well, 1 μl of siRNA stock (20 μM) was mixed with 175 μl of serum-free media. Two μl of Oligofectamine reagent (Invitrogen, Carlsbad, Calif.) was added to prewashed cells in each well, making the final concentration for siRNA approximately 20 nM. Cells were incubated for 4 hours at 37° C. prior to the addition of OGF. Eighteen hours later, 1 ml fresh complete media with or without OGF was added to the cultures; media and OGF were replaced daily. At the indicated time points, cells were collected for growth curves or Western blotting.

The test system of assay [1] is Normal Human Neo-Epidermal Keratinocyte cells (NHEK). Put plainly: Growth of NHEK cells. To be noted: 10^-6 M OGF. Type of assay: cell-based. As to the method: OGFr is required for OGF action on growth. Normal Human Neo-Epidermal Keratinocyte cells (NHEK) were transfected with OGFr siRNAs or control siRNAs for 72 h in the presence of 10^−6 M OGF, 10^−6 M NTX, or sterile water. Cells were harvested at 72 h and counted with a hemacytometer. Data represent means±SE for 2 independent experiments. Cell numbers differed from wt cells or cells transfected with the negative control siRNA and treated with sterile water at p<0.05 (*), p<0.01 (**), or […]. […] At 72 hr, OGF-treated cultures had 20% fewer cells and at 96 hr, OGF-treated cultures had 32% fewer cells than sterile-water treated control cultures.

In another assay the test system is p21. Put plainly: Western blot of p21 in Capan-2 cells. The conditions noted are these: 3 hours. Format: cell-based, human. Here is the method: as §1
Synchronized cells (2×10^6) from each treatment were solubilized in 200 μl RIPA buffer (1×PBS, 10 μM IGEPAL, 1 mg/ml SDS, 5 mg/ml deoxycholic acid), containing protease and phosphatase inhibitors (2 μg/ml aprotinin, 3 mg/ml phenylmethyl sulfonyl fluoride, 1 mM sodium orthovanidate, 1 μM okadaic acid). Total protein concentrations were measured using the DC protein assay kit (Bio-Rad Laboratories, Hercules, Calif.). Equal amounts of protein (40 μg) were subjected to 10% SDS-PAGE followed by transfer of proteins onto polyvinylidene difluoride (Millipore, Billerica, Mass.) using standard protocols.
The p21-targeted siRNAs were obtained from Santa Cruz Biotechnology, and negative control siRNAs were purchased from Ambion (Ambion, Inc., Austin, Tex.). For transfection, 2×10^5 cells per well were seeded in 6-well plates containing 1 ml of media without antibiotics. […]
A general note: In western blotting, separated proteins are transferred to a membrane and probed.

The next assay has as its system p21/Cdk2 complex. Put plainly: Cdk2 immunoprecipitation, p21/Cdk2 and cyclin E/Cdk2 complexes in BxPC-3 cells. Format: cell-based, human. From the text: Cell extracts were subjected to immunoprecipitation using antibodies against Cdk2 and protein A beads. Immunoprecipitates were separated on a 15% SDSPAGE gel, and membrane blots probed with p21 antibodies (1:100), and developed using a chemiluminescence Western blotting detection system. Blots were reprobed with Cdk2 antibody (1:200).

The next assay has as its system SCC-4 cells. Put plainly: Growth curves of SCC-4 cells transfected with p16 siRNA or negative control siRNA. Format: cell-based, human. As to the method:
The SCC-1 (UM-SCC-1) cell line was obtained from the University of Michigan Cancer Research Laboratory, and CAL-27 and SCC-4 cells were obtained from the American Type Culture Collection (Manassas, Va.). SCC-1 and CAL-27 cells were cultured in DMEM media, whereas SCC-4 cells were grown in 1:1 Hams F-12 DMEM media. All media was supplemented with 10% fetal bovine serum (HyClone, Logan, Utah), 1.2% sodium bicarbonate, and 5000 units/ml penicillin, 5 μg/ml streptomycin and 10 μg/ml neomycin. OGF was purchased from Sigma-Aldrich (St. Louis, Mo.), dissolved in sterile water, and used at a final concentration of 10^−6 M.
The p16-targeted siRNAs (antisense:5′ […]-3′; sense (SEQ ID NO:5): 5′ […]-3′(SEQ ID NO:6) were obtained as ready-annealed, purified duplex probes (Invitrogen, Carlsbad, Calif.). For transfection, 2×10^5 cells per well were seeded in 6-well plates containing 1 ml of serum-free media without antibiotics. In each well, 20 nM of p16-siRNA or control siRNA solutions in serum-free media were added. Cells were incubated for 4 h at 37° C. prior to the addition of OGF. Cultures were incubated for additional 20 h, and then 1 ml fresh complete media either lacking or containing OGF was added. At the indicated time points, cells were collected for growth curves or Western blotting. Three or more independent experiments were conducted. The control siRNAs were purchased from Ambion.

[Met^5]-enkephalin [OGF]: the decrease of growth with PANC-1 cells (72 hours) stood at 34.1%; in the assay on PANC-1 cells (96 hours), 35.5%; in the assay on SCC-4 cells (SCC-4 cells transfected with negative control siRNAs, 96 h), 43%. Moreover, the “effect on growth of cells lacking p21” value in the assay on PANC-1 cells (PANC-1 cells transfected with p21 siRNA) was “no inhibitory effect”. The “fewer cells than control cultures” value is 20% in assay [1] (72 hr) and 32% in assay [1] (96 hr). The same substance showed a doubling time in assay [1] (growth curve data) of 57.1 h. Further, the “p21 expression relative to control cultures” value in the assay with p21 is reported as “increased p21 expression”. Besides, the “levels of the p21/Cdk2 complex” value with p21/Cdk2 complex (3, 6, 9, 12, 15, 18, and 21 hours, significant (p<0.05) at 15 hours) is “elevated at all time points; also recorded: increase at 9, 12, 15, 18, and 21 hours”. For the same substance, the “level of the cyclin E/Cdk2 complex” value in the assay with p21/Cdk2 complex (after treatment with OGF) is “no change”. Further, in the assay with SCC-4 cells (SCC-4 cells transfected with p16 siRNAs), the “effect on growth of cells lacking p16 expression” value was “no effect”.
